{
  "source": "patent US6849405B2",
  "about": "“Translation enhancer element of the human amyloid precursor protein gene” (The Brigham and Women's Hospital, Inc., priority 1997, dated 2005)",
  "key": {"[1]": {"system": "APP(s) secretion from primary human astrocytes", "test": "Secretion of APP(s) (protease-nexin II) into medium from primary astrocytes", "assay_type": "cell-based", "details": "2 hour pulse labeling", "protocol": "(§1) Secretion and labeling of APP(s) (protease-nexin-2) from primary astrocytes by IL-1 was measured in a separate set of experiments. Medium from 100 mm dishes (10 ml) of astrocyte cultures was collected after a 2-hour pulse labeling with 200 μCi/ml [^35S]-methionine. APP in 5 ml of precleared medium was immunoprecipitated using a 1:1500 dilution of rabbit polyclonal serum specific for amino acids 595-611 of APP (R1736, D. Selko). Apolipoprotein E was immunoprecipitated from 5 ml of culture supernatant using a 1:200 dilution of a polyclonal antiserum (Chemicon).\n(§2) In all labeling experiments, immunoprecipitated protein was collected by the binding of antibody-labeled antigen complexes to Protein A Sepharose™ beads. Immunoprecipitated samples were applied to 10-20% tris-tricine gels (Novex) and the samples were electrophoresed in tris-tricine buffer according to the manufacturer's instructions. The gels were fixed with 25% methanol, […] for 1 hour, treated with fluorographic reagent (Amplify, Amersham) for 30 minutes, dried, and exposed to X-omat Kodak film overnight at −80° C."}, "Apo-E protein synthesis": {"system": "Apo-E protein synthesis", "test": "Apo-E protein synthesis (internal standard), primary astrocytes", "assay_type": "cell-based", "details": "primary human astrocytes", "protocol": "as §1, §2"}, "APP-mRNA": {"system": "APP-mRNA", "test": "Northern blot of APP-mRNA, primary astrocytes", "assay_type": "cell-based, human", "protocol": "Total RNA (10 μg) was extracted from primary astrocytes and astrocytoma cells with a RNA-STAT kit (Tel-Test). RNA samples were denatured in 50% formamide/2.2 M formaldehyde/20 mM MOPS/5 mM sodium acetate/0.5 mM EDTA, pH 7.4, at 60° C. for 10 minutes, electrophoresed on 1.0% agarose-formaldehyde gels, blotted onto Hybond-N filters and immobilized by UV crosslinking and heating filters to 80° C. Filters were prehybridized for 3 hours and hybridized overnight in a solution consisting of 50% formamide, […] denatured salmon sperm DNA, 5×SSC, 0.1% sodium dodecyl sulfate and 5×Denhardt's solution. Following hybridization, filters were washed twice for a total of 1 hour in 2×SSC/0.2% sodium dodecyl sulfate at room temperature and twice each for a total of 1 hour in 0.5×SSC/0.1% sodium dodecyl sulfate at 55° C. Equal loading was verified by ethidium bromide staining, non-specific hybridization of the ACT probe to the 28S rRNA, and by standardized hybridization to the GAPDH cDNA probe as an internal standard. The APP cDNA probe corresponded to the unique internal 1 kb fragment gel purified from the 3 kb APP cDNA (Kang et al. Nature 325: 733 (1987)), the ACT cRNA probe to a PstI/SacI fragment (536-943) in the human ACT cDNA (Chandra, et al., Biochemistry 22: 5055 (1983)) and the GAPDH probe to the human GAPDH gene (Tokunaga, et al., Cancer Res. 47: 5616 (1987))."}, "APP/CAT mRNA": {"system": "APP/CAT mRNA", "test": "RNase protection of APP/CAT mRNA in pSV2(APP)CAT-transfected astrocytoma cells", "assay_type": "cell-based, human", "details": "16 hours stimulation", "protocol": "Cells were lysed in 2 ml of a buffer containing 4 M guanidinium thiocyanate, 25 mM NaOac, pH 6.0, 100 mm β-mercaptoethanol. RNA was prepared after shearing the DNA and centrifuging the lysate at 31K, 23° C. for 12 hours through 5 ml of 5.7 M CsCl2 cushion. This procedure ensured that CAT mRNAs and endogenous ferritin mRNAs were purified as a pellet without contamination from plasmid DNA containing transfected CAT gene sequences. The RNA pellet was resuspended in TES buffer (10 mM Tris, pH 7.6, 1 mM EDTA, 0.5% SDS) and was extracted with an equal volume of phenol/chloroform, ethanol-precipitated and resuspended in TES buffer.\nSteady-state levels of transfected CAT mRNA from astrocytoma and neuroblastoma pSV2(APP)(CAT) transfectants was characterized by RNase protection. A 261 nucleotide ^32P-labeled cRNA was transcribed from a HindIII digested DNA template isolated from the CAT gene in the pSV2CAT subclone (Rogers, et al., Nucl. Acid Res. 22: 2678 (1994); Campbell, et al., Biochem. Biophys. Res. Commun. 160: 453 (1989); Fahmy, et al., Biochem. J. 296; 175 (1993)). Labeled cRNA, antisense to the CAT gene, was hybridized to 20 μg of mRNA purified from pSV2(APP)(CAT) transfectants of astrocytoma cells. […] Kinase labeled HaeIII-digested X-174 DNA fragments were used as DNA markers for autoradiography and quantitation of CAT mRNA levels."}},
  "data": [
    {"substance": "interleukin-1α [IL-1α]", "values": [
      {"measurement": "increased accumulation of APP(s)", "setting": "[1]; medium", "result": 50, "unit": "%"},
      {"measurement": "ApoE protein synthesis", "setting": "Apo-E protein synthesis", "result": "no increase"},
      {"measurement": "APP-mRNA levels (Northern blot, densitometry)", "setting": "APP-mRNA", "result": "unchanged"},
      {"measurement": "decrease of steady-state level of CAT mRNA", "setting": "APP/CAT mRNA; pSV2(APP)CAT transfectants, two separate transfections", "result": 50, "unit": "%"}
    ]},
    {"substance": "interleukin-1β [IL-1β]", "values": [
      {"measurement": "enhanced secretion of APP(s) into the medium", "setting": "[1]", "result": 1.8, "unit": "fold"},
      {"measurement": "ApoE protein synthesis", "setting": "Apo-E protein synthesis", "result": "no increase"},
      {"measurement": "increase of steady-state APP/CAT mRNA level relative to unstimulated cells", "setting": "APP/CAT mRNA; pSV2(APP)CAT transfected astrocytoma cells", "result": 30, "unit": "%"}
    ]}
  ]
}
